Experimental data taken from paper PMC6271602, “PBDE: Structure-Activity Studies for the Inhibition of Hepatitis C Virus NS3 Helicase” (Molecules, 2014).
Where two headings read alike, the source gives them in different places.

Experiments:
Toxicity assay (MTS) = format: cell-based; conditions: cell lines harboring the subgenomic replicon RNAs, replicon cells, read-out: cytotoxic effect, CC50
Description: MTS assay was carried out to determine cytotoxicity using a CellTiter 96 aqueous one-solution cell proliferation assay kit (Promega) according to the manufacturer’s instructions.

[1] = target: T1, NS3 ATPase activity (HCV NS3 protein) (Hepatitis C virus genotype 1b, UniProt Q9WMX2); assay: Radioisotope labeling ATP hydrolysis (ATPase) assay; format: biochemical; conditions: PBDE 0.1 mM, NS3 600 nM, 1 mM ATP
T1 sequence (Q9WMX2 1027-1657): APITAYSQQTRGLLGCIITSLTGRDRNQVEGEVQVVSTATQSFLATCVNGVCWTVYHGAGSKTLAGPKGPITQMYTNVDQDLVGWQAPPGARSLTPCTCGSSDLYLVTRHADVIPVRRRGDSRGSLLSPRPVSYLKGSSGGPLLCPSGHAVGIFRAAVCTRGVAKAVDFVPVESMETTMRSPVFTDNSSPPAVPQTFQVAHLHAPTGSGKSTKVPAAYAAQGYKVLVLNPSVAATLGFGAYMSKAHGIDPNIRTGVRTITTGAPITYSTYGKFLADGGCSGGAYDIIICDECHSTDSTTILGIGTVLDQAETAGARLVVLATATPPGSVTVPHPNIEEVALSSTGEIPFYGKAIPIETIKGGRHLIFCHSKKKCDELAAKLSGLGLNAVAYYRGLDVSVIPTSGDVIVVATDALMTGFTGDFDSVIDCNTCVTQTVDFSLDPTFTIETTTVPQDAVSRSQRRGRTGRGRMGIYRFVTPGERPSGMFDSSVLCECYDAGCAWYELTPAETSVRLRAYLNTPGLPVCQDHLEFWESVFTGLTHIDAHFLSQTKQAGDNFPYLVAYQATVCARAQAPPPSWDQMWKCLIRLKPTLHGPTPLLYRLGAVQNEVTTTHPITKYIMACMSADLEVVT

[2] = target: T1, NS3 ATPase activity (HCV NS3 protein); assay: as above; format: biochemical; conditions: for NS3 ATPase inhibition (result in words): structure-activity discussion of Table 2
Description: (§1) Following our previous report, unless otherwise stated, the standard assay reaction (10 μL) contained the following components: 25 mM MOPS-NaOH (pH 7.0), 1 mM DTT, 5 mM MgCl2, 5 mM CaCl2, 1 mM [γ-^32P] ATP, 300 nM NS3, and 0.1 μg/μL poly(U) with serial dilution of the tested compounds in DMSO. Samples were incubated at 37 °C for 10 min, and the reaction was terminated by adding 15 μL of stop solution (10 mM EDTA). A small portion (2 μL) of reaction mixture was spotted on a PEI-cellulose TLC plate (Merck Millipore, Darmstadt, Germany) and developed by ascending chromatography in 0.75 M LiCl/1 M formic acid solution for 25 min. The TLC plate was then air-dried, and applied to autoradiography measured by an Image Reader FLA-9000 and quantified by Multi Gauge V3.11 software (Fujifilm, Tokyo, Japan). For the bacterial alkaline phosphatase assay, the buffer provided with the kit (Takara Bio, Otsu, Japan) was used, and then subjected to the assay as described above.

[3] = test system: subgenomic replicon RNA of genotype 1b N strain; assay: HCV replication assay (subgenomic replicon, luciferase); format: cell-based; conditions: Hepatitis C virus, genotype 1b strain N replicon, 72 h, read-out: suppression of HCV replication, EC50
Description: The cell lines harboring the subgenomic replicon RNAs of genotype 1b strain N [27] were seeded at 2 × 10^4 cells per well in a 48-well plate 24 h before treatment. The cells were treated with PBDE at various concentrations for 72 h and lysed in cell culture lysis reagent (Promega). A luciferase assay system (Promega) was used to determine the luciferase activity, and the luminescence was measured using Luminescencer-JNR AB-2100 (ATTO, Tokyo, Japan), corresponding to the expression level of the HCV replicon.

NS3 RNA binding = NS3 RNA binding (Hepatitis C virus genotype 1b, UniProt Q9WMX2); assay: Gel mobility shift assay (NS3 binding to ssRNA)
NS3 RNA binding, sequence (Q9WMX2 1027-1657): as above
Description: GMSA was performed with slight modification as described previously. In brief, [γ-^32P] ATP-labeled single-stranded RNA (0.4 nM) was incubated in a buffer containing 30 mM Tris-HCl pH 7.5, 100 mM NaCl, 2 mM MgCl2, 1 mM DTT, 20 U of RNasin plus (Promega) in the presence of 300 nM NS3 protein with serial dilution of PBDE in DMSO at room temperature for 15 min in a final reaction volume of 20 μL. The protein-RNA complexes were loaded onto a 6% native-PAGE (acrylamide:bis = 19:1) and after electrophoresis in TBE buffer, the labeled RNA bands were visualized and quantified with an Image Reader FLA-9000 (Fujifilm) and Multi Gauge V3.11 software (Fujifilm), respectively.

[4] = target: T2, bacterial alkaline phosphatase (Escherichia coli, UniProt P00634); assay: ATPase assay with bacterial alkaline phosphatase (specificity); format: biochemical; conditions: highest concentration tested, 200 μM
T2 construct: purchased Takara Bio BAPC75
T2 sequence (P00634 22-471): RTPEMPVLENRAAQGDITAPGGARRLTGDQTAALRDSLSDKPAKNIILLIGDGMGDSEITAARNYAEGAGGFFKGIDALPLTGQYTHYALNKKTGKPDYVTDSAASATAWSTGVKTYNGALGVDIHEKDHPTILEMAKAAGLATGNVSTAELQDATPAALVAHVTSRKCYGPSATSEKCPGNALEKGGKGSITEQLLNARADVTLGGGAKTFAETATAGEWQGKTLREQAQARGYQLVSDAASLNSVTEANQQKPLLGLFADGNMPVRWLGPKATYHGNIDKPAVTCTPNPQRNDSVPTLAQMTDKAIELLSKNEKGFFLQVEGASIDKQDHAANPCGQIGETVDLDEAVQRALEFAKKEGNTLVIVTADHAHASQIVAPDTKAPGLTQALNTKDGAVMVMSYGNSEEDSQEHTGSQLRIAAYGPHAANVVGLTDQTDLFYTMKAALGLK
Description: as §1

HCV NS3 helicase = HCV NS3 helicase (Hepatitis C virus genotype 1b, UniProt Q9WMX2); format: biochemical; conditions: FRET screening; strongest of 41 extracts
HCV NS3 helicase, sequence (Q9WMX2 1027-1657): as the sequence (Q9WMX2 1027-1657) above

[5] = 300 nM NS3, 1 mM [γ-32P] ATP, read-out: NS3 ATPase Inhibition IC50

| Compound | IC50 [2] | NS3 ATPase inhibition (result in words) [2] | other results |
| --- | --- | --- | --- |
| Oc1cc(Br)cc(Br)c1Oc1ccc(Br)cc1Br [Compound 1, 6-hydroxy-2,2',4,4'-tetrabromodiphenyl ether] | 80 µM | – | CC50 at 72 h (Toxicity assay (MTS)): > 5 µM; NS3 ATPase inhibition in presence and absence of poly(U) RNA [1]: significantly active in both the presence and absence of poly(U); EC50 [3]: 3.3 µM; IC50 (NS3 RNA binding): 68 µM; inhibition of ATPase activity of bacterial alkaline phosphatase [4]: no inhibition; inhibition of NS3 helicase activity (HCV NS3 helicase): 37% |
| Oc1ccc2cc(Br)ccc2c1-c1c(O)ccc2cc(Br)ccc12 [Compound 8, (R)-(−)-6,6'-dibromo-1,1'-bi-2-naphthol] | – | most potent activity | IC50 [2, 5]: 54 µM |
| Oc1c(F)c(F)c(-c2c(F)c(F)c(F)c(F)c2F)c(F)c1F [Compound 11, 2,3,5,6-tetrafluoro-4-(pentafluorophenyl)phenol] | > 200 µM | inactive | – |
| CC(C)(c1cc(Br)c(O)c(Br)c1)c1cc(Br)c(O)c(Br)c1 [Compound 6, 3,3',5,5'-tetrabromobisphenol A] | 120 µM | same level of inhibition as that of bromophene 3 | – |
| Oc1c(Br)cc2ccccc2c1-c1c(O)c(Br)cc2ccccc12 [Compound 12, (R)-(+)-3-3'-dibromo-1,1'-bi-2-naphthol] | – | no activity | IC50 [2, 5]: > 200 µM |
| Oc1cc(Cl)ccc1Oc1ccc(Cl)cc1Cl [Compound 4, triclosan, reference compound] | 150 µM | moderate levels of inhibition | – |
| Oc1c(-c2ccccc2)cc(-c2ccc(Br)cc2)cc1-c1ccccc1 [Compound 16, 4-(4-bromophenyl)-2,6-diphenylphenol] | – | did not show inhibitory activity | IC50 [2, 5]: > 200 µM |
| Brc1ccc(Oc2ccc(Br)cc2Br)c(Br)c1 [Compound 17, 2,2',4,4'-tetrabromodiphenyl ether] | > 200 µM | complete loss of the inhibitory activity | – |
| Oc1ccc(Cl)cc1-c1cc(Cl)c(Cl)c(Cl)c1Cl [Compound 15, 2-Hydroxy-2',3',4',5,5'-pentachlorobiphenyl] | 54 µM | most potent inhibitory activity of all the analogs in this study | – |
| Oc1c(Br)cc2c(c1-c1c(O)c(Br)cc3c1CCCC3)CCCC2 [Compound 13, (R)-(+)-3,3'-dibromo-5,5',6,6',7,7',8,8'-octahydro-1,1'-bi-2,2'-naphthalenediol] | – | no activity | IC50 [2, 5]: > 200 µM |
| CC(C)(c1cc(Cl)c(O)c(Cl)c1)c1cc(Cl)c(O)c(Cl)c1 [Compound 9, tetrachlorobisphenol A] | 94 µM | same level of inhibition as that of bromophene 3 | – |
| COc1cc(Br)cc(Br)c1Oc1ccc(Br)cc1Br [Compound 2, PBDE methyl ether] | > 200 µM | complete loss of the inhibitory activity | – |
| Oc1ccccc1-c1ccccc1 [Compound 7, O-hydroxybiphenyl] | > 200 µM | loss of the inhibitory activity | – |
| CC(C)(c1cc(Br)c(OCCO)c(Br)c1)c1cc(Br)c(OCCO)c(Br)c1 [Compound 14, 4,4'-isopropylidenebis[2-(2,6-dibromophenoxy)ethanol]] | > 200 µM | loss of activity | – |
| Oc1ccc2cc(Br)ccc2c1Br [Compound 10, 1,6-dibromo-2-naphthol] | > 200 µM | did not exhibit the inhibitory activity | – |
| Oc1c(Br)cc(Br)cc1-c1cc(Br)cc(Br)c1O [Compound 3, Bromophene] | 94 µM | remained at the same level as that of PBDE (1) | – |
| Oc1c(Br)cc(Br)cc1Br [Compound 5, 2,4,6-tribromophenol] | > 200 µM | did not exhibit the inhibitory activity | – |
